{"source": "patent US10898595B2", "about": "“Core-satellite nanocomposites for MRI and photothermal therapy” (The Regents of the University of Michigan, priority 2013, dated 2021)", "tested_on": "SUM-159 tumors", "experiment": "In vivo PTT using IONP-IR820", "set-up": "species or system mice", "details": "10 minutes", "experimental": "Tumor-bearing nude mice were randomly allocated into three groups (five mice in each group) when the solid SUM-159 tumors had grown to ˜80 mm3. Mice in each group were intravenously injected with IONP-IR820 (20 mg Fe/Kg mouse body weight), the same amount of IR820, the same amount of IONPs. 24 h post injection, tumors were irradiated with a diode laser (λ=885 nm) at a laser power of 0.5 W for 10 minutes. The highest tumor surface temperature was recorded by an infrared camera (FLIR Systems, i7, Boston, Mass.) before and after application of the laser.\nMice were humanely euthanized by CO2 inhalation 24 h following a single I.V. bolus dose of nanoparticles. The harvested tissue was formalin-fixed, embedded in paraffin and sectioned. Unstained slides were dewaxed using xylene and rehydrated using graded alcohol. Rehydrated slides were stained with Hematoxylin and eosin (H&E staining) for visualization of nucleic acids and cytoplasm."}
{"smiles": "CC1(C)C(=CC=C2CCCC(C=CC3=[N+](CCCCS(=O)(=O)[O-])c4ccc5ccccc5c4C3(C)C)=C2Cl)N(CCCCS(=O)(=O)[O-])c2ccc3ccccc3c21.[Na+]", "note": "[IR820]", "values": [{"measurement": "Tumor tissue hemorrhaging right after laser irradiation", "setting": "24 h post IV injection (20 mg Fe/Kg or same amount), 885 nm laser 0.5 W", "value": "does not have any obvious hemorrhaging"}, {"measurement": "Average temperature increase at the tumor site", "setting": "24 h post IV injection, laser 0.5 W, infrared camera", "value": "8.3±0.8", "unit": "°C"}]}
